Assay results published in patent publication EP1715059A1, “Method for the identification of possibly harmful receptor tyrosine kinase (RTK) mutations and of inhibitors or medication directed against RTK mutants” (Esbatech AG, priority 2005, dated 2006).
Where a name gives a salt, the structure may show the parent alone. Read-outs that look alike come from different tables or passages of the source.

Legend:
N822H = N822H (Homo sapiens, UniProt P10721, N822H); settings: like wt KIT, literature (25); cited from earlier work
Chain of N822H (P10721 26-976 N822H): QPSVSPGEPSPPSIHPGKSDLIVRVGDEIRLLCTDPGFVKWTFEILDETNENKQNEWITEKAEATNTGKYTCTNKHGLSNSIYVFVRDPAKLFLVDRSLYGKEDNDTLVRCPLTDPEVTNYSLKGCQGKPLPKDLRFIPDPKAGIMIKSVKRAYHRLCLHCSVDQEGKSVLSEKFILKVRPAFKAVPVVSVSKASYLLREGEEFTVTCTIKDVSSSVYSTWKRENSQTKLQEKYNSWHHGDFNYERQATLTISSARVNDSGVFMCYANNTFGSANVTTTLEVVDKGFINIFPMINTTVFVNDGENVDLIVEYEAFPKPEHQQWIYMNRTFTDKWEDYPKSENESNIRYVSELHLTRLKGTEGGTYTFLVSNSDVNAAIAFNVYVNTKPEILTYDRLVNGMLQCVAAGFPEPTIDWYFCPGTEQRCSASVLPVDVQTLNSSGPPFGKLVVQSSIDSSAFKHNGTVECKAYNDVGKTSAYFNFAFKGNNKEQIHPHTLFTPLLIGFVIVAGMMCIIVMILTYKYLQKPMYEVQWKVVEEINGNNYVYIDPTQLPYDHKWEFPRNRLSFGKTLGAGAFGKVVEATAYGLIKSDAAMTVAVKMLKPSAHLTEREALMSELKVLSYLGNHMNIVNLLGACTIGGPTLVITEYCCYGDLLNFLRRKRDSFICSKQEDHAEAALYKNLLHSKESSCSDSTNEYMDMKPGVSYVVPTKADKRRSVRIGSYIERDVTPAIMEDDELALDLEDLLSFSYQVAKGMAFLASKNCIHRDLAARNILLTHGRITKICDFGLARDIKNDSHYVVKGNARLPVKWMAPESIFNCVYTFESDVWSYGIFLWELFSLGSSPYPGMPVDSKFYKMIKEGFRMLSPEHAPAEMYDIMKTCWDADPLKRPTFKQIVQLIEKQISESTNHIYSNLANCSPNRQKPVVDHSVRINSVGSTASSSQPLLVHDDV

D816V mutation = D816V mutation (Homo sapiens, UniProt P10721, D816V); settings: literature (29), cited from earlier work
Chain of D816V mutation (P10721 26-976 D816V): as the sequence (P10721 26-976 N822H) above, with D791V, H797N counted along it

K642E = K642E (Homo sapiens, UniProt P10721, K642E); settings: like wt KIT, literature (25); cited from earlier work
Chain of K642E (P10721 26-976 K642E): as the sequence (P10721 26-976 N822H) above, with K617E, H797N counted along it

RET = molecular target: T1, RET (Homo sapiens, UniProt P07949); experiment: Yeast growth assay, selection of specific RTK inhibition (OD 600 nm); type: cell-based; settings: 50 µM in the yeast culture
T1 construct: preferably cytoplasmic domains of RTKs or fragments thereof, are expressed in the cytoplasm of host cells; expressed in transfected cells; host or cells: yeast (S. cerevisiae)
T1 sequence (P07949 658-1114 limits assumed): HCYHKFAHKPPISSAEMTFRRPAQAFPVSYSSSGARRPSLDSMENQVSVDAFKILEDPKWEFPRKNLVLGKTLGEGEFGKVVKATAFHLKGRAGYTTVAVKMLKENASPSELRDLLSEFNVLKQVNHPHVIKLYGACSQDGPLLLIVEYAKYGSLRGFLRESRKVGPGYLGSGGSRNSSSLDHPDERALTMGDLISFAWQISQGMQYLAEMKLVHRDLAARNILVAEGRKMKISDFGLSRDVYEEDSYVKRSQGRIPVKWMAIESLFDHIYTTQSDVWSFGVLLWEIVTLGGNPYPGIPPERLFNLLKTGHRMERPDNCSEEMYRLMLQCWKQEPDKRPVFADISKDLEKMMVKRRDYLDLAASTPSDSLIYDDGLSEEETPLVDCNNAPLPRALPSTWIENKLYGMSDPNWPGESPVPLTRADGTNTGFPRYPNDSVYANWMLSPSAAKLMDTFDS
Description: (§1) Selection of specific inhibition of Receptor Tyrosine Kinase activity in yeast.

KIT mutant D816Y = molecular target: T2, KIT mutant D816Y (Homo sapiens, UniProt P10721, D816Y); experiment: Yeast cell-based growth rescue assay, KIT mutant; settings: 0.2 to 100 µM; yeast strain RLY09/Δptp1; PD180970 effect at the highest concentrations
T2 construct: preferably cytoplasmic domains of RTKs or fragments thereof, are expressed in the cytoplasm of host cells; expressed in transfected cells; host or cells: S. cerevisiae RLY09/Δptp1
T2 sequence (P10721 546-976 D816Y limits assumed): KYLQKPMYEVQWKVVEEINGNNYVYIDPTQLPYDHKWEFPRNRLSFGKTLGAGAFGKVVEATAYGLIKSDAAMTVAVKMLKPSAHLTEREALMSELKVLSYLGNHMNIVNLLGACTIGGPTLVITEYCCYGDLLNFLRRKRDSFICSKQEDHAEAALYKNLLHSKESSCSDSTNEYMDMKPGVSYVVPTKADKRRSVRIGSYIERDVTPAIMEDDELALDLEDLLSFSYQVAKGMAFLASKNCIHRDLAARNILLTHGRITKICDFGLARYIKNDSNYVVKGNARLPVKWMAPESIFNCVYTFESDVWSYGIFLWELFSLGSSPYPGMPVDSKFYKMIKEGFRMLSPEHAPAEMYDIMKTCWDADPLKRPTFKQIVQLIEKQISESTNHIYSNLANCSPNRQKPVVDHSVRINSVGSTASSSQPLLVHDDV
Description: (§2) Expression of wild-type KIT confers only a slight slow growth phenotype in yeast (in the RLY07 strain, under the full-length GAL promoter). Various mutations that occur in human GISTs or in mastocytosis were introduced in the Kit construct expressed in yeast. Expression of the various mutants caused reduced yeast growth but in various extent, likely correlating with various extent of activity (see graphs Figures 7a and 7b) . […] The yeast strain expressing the various Kit proteins in this experiment, was […] which all the Kit proteins produce a similar slow growth phenotype (see values of the window vector/RTK). The starting OD was optimized to obtain windows as similar as possible.

KIT mutant D816F = molecular target: T3, KIT mutant D816F (Homo sapiens, UniProt P10721, D816F); experiment: Yeast cell-based growth rescue assay, KIT mutant; settings: 0.2 to 100 µM; yeast strain RLY09/Δptp1; PD180970 effect at the highest concentrations
T3 construct: preferably cytoplasmic domains of RTKs or fragments thereof, are expressed in the cytoplasm of host cells; expressed in transfected cells; host or cells: S. cerevisiae RLY09/Δptp1
T3 sequence (P10721 546-976 D816F limits assumed): as the sequence (P10721 546-976 D816Y limits assumed) above, with Y271F counted along it
Description: as §2

KIT mutant D816V = molecular target: T4, KIT mutant D816V (Homo sapiens, UniProt P10721, D816V); experiment: Yeast cell-based growth rescue assay, KIT mutant; settings: 0.2 to 100 µM; yeast strain RLY09/Δptp1; PD180970 effect at the highest concentrations
T4 construct: preferably cytoplasmic domains of RTKs or fragments thereof, are expressed in the cytoplasm of host cells; expressed in transfected cells; host or cells: S. cerevisiae RLY09/Δptp1
T4 sequence (P10721 546-976 D816V limits assumed): as the sequence (P10721 546-976 D816Y limits assumed) above, with Y271V counted along it
Description: as §2

HMC1.1 = settings: human cell line HMC1.1 expressing V560G mutation; literature (29); cited from earlier work
PDGFR-β = experiment: Yeast growth assay, selection of specific RTK inhibition (OD 600 nm); type: cell-based, human; settings: 50 µM in the yeast culture
Description: as §1

HMC-1 cells = settings: literature (23); cited from earlier work
[1] = patients with nonsmall cell lung cancer; cited from earlier work

Q: Which “sensitive in vitro (concentration)” value (N822H) does the source give for `Cc1ccc(NC(=O)c2ccc(CN3CCN(C)CC3)cc2)cc1Nc1nccc(-c2cccnc2)n1` [Gleevec, imatinib mesylate] here?
A: 100 to 200 nM

Q: And the “resistance of D816V mutant to inhibitor” value (D816V mutation)?
A: resistant

Q: And the “resistance of D816V mutant to inhibitor” value (D816V mutation; listed as STI571)?
A: resistance

Q: And the “sensitive in vitro (concentration)” value (K642E)?
A: 100 to 200 nM

Q: What about the “restores growth of cells expressing RET” value (RET) of the same compound?
A: not growth of cells expressing RET

Q: What about the “sensitivity of mutant D816Y in yeast (growth rescue)” value (KIT mutant D816Y) of the same compound?
A: resistant

Q: What about the “sensitivity of mutant D816F in yeast (growth rescue)” value (KIT mutant D816F) of the same compound?
A: resistant

Q: What about the “sensitivity of mutant D816V in yeast (growth rescue)” value (KIT mutant D816V) of the same compound?
A: resistant

Q: What about the apoptosis (HMC1.1) of the same compound?
A: induce apoptosis

Q: What about the “restores growth of PDGFR-β-expressing yeast cells” value (PDGFR-β) of the same compound?
A: specifically restores growth

Q: With `Cc1cc(Nc2ncc3cc(-c4c(Cl)cccc4Cl)c(=O)n(C)c3n2)ccc1F` [PD180970] as the compound, how does the KIT phosphorylation (HMC-1 cells) read?
A: inhibits

Q: What about the cell proliferation (HMC-1 cells) of the same compound?
A: inhibits

Q: And the “resistance of D816V mutant to inhibitor” value (D816V mutation)?
A: resistant

Q: What about the “sensitivity of mutant D816Y in yeast (growth rescue)” value (KIT mutant D816Y) of the same compound?
A: slight effect

Q: What about the “sensitivity of mutant D816F in yeast (growth rescue)” value (KIT mutant D816F) of the same compound?
A: slight effect

Q: What about the “sensitivity of mutant D816V in yeast (growth rescue)” value (KIT mutant D816V) of the same compound?
A: slight effect

Q: With `COc1cc2ncnc(Nc3ccc(F)c(Cl)c3)c2cc1OCCCN1CCOCC1` [gefitinib] as the compound, how does the “patients have a rapid and often dramatic clinical response” value [1] read?
A: 10%
